Data published in BindingDB's records for doi:10.1021/acs.jnatprod.9b01022 (Taipei Chang Gung Memorial Hospital, 2020).

Legend:
[1] = Reversal of human ABCG2-mediated multidrug resistance in HEK293/R482 cells assessed as effect on topotecan-induced cytotoxicity by measuring topotecan IC50 at 1 uM after 72 hrs by CCK8 assay (Rvb = 201.31 +/- 25.89 nM)
[2] = Reversal of ABCG2 (unknown origin)-mediated multidrug resistance in human H460-MX20 cells assessed as effect on topotecan-induced cytotoxicity by measuring topotecan IC50 at 0.5 uM after 72 hrs by MTT assay (Rvb = 1319.20 +/- 356.14 nM)
[3] = Reversal of human ABCC1-mediated multidrug resistance in HEK293/MRP1 cells assessed as effect on etoposide-induced cytotoxicity by measuring etoposide IC50 at 3 uM after 72 hrs by CCK8 assay (Rvb = 63.34 +/- 7.92 uM)
[4] = Reversal of human ABCC1-mediated multidrug resistance in HEK293/MRP1 cells assessed as effect on etoposide-induced cytotoxicity by measuring etoposide IC50 at 1 uM after 72 hrs by CCK8 assay (Rvb = 63.34 +/- 7.92 uM)
[5] = Reversal of human ABCG2-mediated multidrug resistance in HEK293/R482 cells assessed as effect on mitoxantrone-induced cytotoxicity by measuring mitoxantrone IC50 at 0.5 uM after 72 hrs by CCK8 assay (Rvb = 50.66 +/- 6.88 nM)
[6] = Reversal of ABCG2 (unknown origin)-mediated multidrug resistance in human S1-M1-80 cells assessed as effect on topotecan-induced cytotoxicity by measuring topotecan IC50 at 2 uM after 72 hrs by MTT assay (Rvb = 10.14 +/- 2.820 uM)
[7] = Reversal of human ABCC1-mediated multidrug resistance in HEK293/MRP1 cells assessed as effect on etoposide-induced cytotoxicity by measuring etoposide IC50 at 0.5 uM after 72 hrs by CCK8 assay (Rvb = 63.34 +/- 7.92 uM)
[8] = Reversal of ABCG2 (unknown origin)-mediated multidrug resistance in human S1-M1-80 cells assessed as effect on mitoxantrone-induced cytotoxicity by measuring mitoxantrone IC50 at 1 uM after 72 hrs by MTT assay (Rvb = 73.62 +/- 7.20 uM)
[9] = Reversal of human ABCC1-mediated multidrug resistance in HEK293/MRP1 cells assessed as effect on etoposide-induced cytotoxicity by measuring etoposide IC50 at 2 uM after 72 hrs by CCK8 assay (Rvb = 63.34 +/- 7.92 uM)
[10] = Reversal of ABCG2 (unknown origin)-mediated multidrug resistance in human H460-MX20 cells assessed as effect on mitoxantrone-induced cytotoxicity by measuring mitoxantrone IC50 at 3 uM after 72 hrs by MTT assay (Rvb = 1160.60 +/- 365.72 nM)
[11] = Reversal of human ABCG2-mediated multidrug resistance in HEK293/R482 cells assessed as effect on topotecan-induced cytotoxicity by measuring topotecan IC50 at 0.5 uM after 72 hrs by CCK8 assay (Rvb = 201.31 +/- 25.89 nM)
[12] = Reversal of human ABCG2-mediated multidrug resistance in HEK293/R482 cells assessed as effect on mitoxantrone-induced cytotoxicity by measuring mitoxantrone IC50 at 3 uM after 72 hrs by CCK8 assay (Rvb = 50.66 +/- 6.88 nM)
[13] = Reversal of ABCG2 (unknown origin)-mediated multidrug resistance in human S1-M1-80 cells assessed as effect on topotecan-induced cytotoxicity by measuring topotecan IC50 at 3 uM after 72 hrs by MTT assay (Rvb = 10.14 +/- 2.820 uM)
[14] = Reversal of human ABCG2-mediated multidrug resistance in HEK293/R482 cells assessed as effect on mitoxantrone-induced cytotoxicity by measuring mitoxantrone IC50 at 1 uM after 72 hrs by CCK8 assay (Rvb = 50.66 +/- 6.88 nM)
[15] = Reversal of ABCG2 (unknown origin)-mediated multidrug resistance in human S1-M1-80 cells assessed as effect on mitoxantrone-induced cytotoxicity by measuring mitoxantrone IC50 at 2 uM after 72 hrs by MTT assay (Rvb = 73.62 +/- 7.20 uM)
[16] = Reversal of ABCG2 (unknown origin)-mediated multidrug resistance in human S1-M1-80 cells assessed as effect on topotecan-induced cytotoxicity by measuring topotecan IC50 at 1 uM after 72 hrs by MTT assay (Rvb = 10.14 +/- 2.820 uM)
[17] = Reversal of ABCG2 (unknown origin)-mediated multidrug resistance in human H460-MX20 cells assessed as effect on mitoxantrone-induced cytotoxicity by measuring mitoxantrone IC50 at 1 uM after 72 hrs by MTT assay (Rvb = 1160.60 +/- 365.72 nM)
[18] = Reversal of human ABCG2-mediated multidrug resistance in HEK293/R482 cells assessed as effect on topotecan-induced cytotoxicity by measuring topotecan IC50 at 2 uM after 72 hrs by CCK8 assay (Rvb = 201.31 +/- 25.89 nM)
[19] = Reversal of ABCG2 (unknown origin)-mediated multidrug resistance in human S1-M1-80 cells assessed as effect on topotecan-induced cytotoxicity by measuring topotecan IC50 at 0.5 uM after 72 hrs by MTT assay (Rvb = 10.14 +/- 2.820 uM)
[20] = Reversal of ABCG2 (unknown origin)-mediated multidrug resistance in human H460-MX20 cells assessed as effect on topotecan-induced cytotoxicity by measuring topotecan IC50 at 2 uM after 72 hrs by MTT assay (Rvb = 1319.20 +/- 356.14 nM)
[21] = Reversal of ABCG2 (unknown origin)-mediated multidrug resistance in human S1-M1-80 cells assessed as effect on mitoxantrone-induced cytotoxicity by measuring mitoxantrone IC50 at 0.5 uM after 72 hrs by MTT assay (Rvb = 73.62 +/- 7.20 uM)
[22] = Reversal of ABCG2 (unknown origin)-mediated multidrug resistance in human S1-M1-80 cells assessed as effect on mitoxantrone-induced cytotoxicity by measuring mitoxantrone IC50 at 3 uM after 72 hrs by MTT assay (Rvb = 73.62 +/- 7.20 uM)
[23] = Reversal of human ABCG2-mediated multidrug resistance in HEK293/R482 cells assessed as effect on topotecan-induced cytotoxicity by measuring topotecan IC50 at 3 uM after 72 hrs by CCK8 assay (Rvb = 201.31 +/- 25.89 nM)
[24] = Reversal of ABCG2 (unknown origin)-mediated multidrug resistance in human H460-MX20 cells assessed as effect on mitoxantrone-induced cytotoxicity by measuring mitoxantrone IC50 at 0.5 uM after 72 hrs by MTT assay (Rvb = 1160.60 +/- 365.72 nM)
[25] = Reversal of ABCG2 (unknown origin)-mediated multidrug resistance in human H460-MX20 cells assessed as effect on topotecan-induced cytotoxicity by measuring topotecan IC50 at 3 uM after 72 hrs by MTT assay (Rvb = 1319.20 +/- 356.14 nM)
[26] = Reversal of ABCG2 (unknown origin)-mediated multidrug resistance in human H460-MX20 cells assessed as effect on topotecan-induced cytotoxicity by measuring topotecan IC50 at 1 uM after 72 hrs by MTT assay (Rvb = 1319.20 +/- 356.14 nM)
[27] = Reversal of ABCG2 (unknown origin)-mediated multidrug resistance in human H460-MX20 cells assessed as effect on mitoxantrone-induced cytotoxicity by measuring mitoxantrone IC50 at 2 uM after 72 hrs by MTT assay (Rvb = 1160.60 +/- 365.72 nM)
[28] = Reversal of human ABCG2-mediated multidrug resistance in HEK293/R482 cells assessed as effect on mitoxantrone-induced cytotoxicity by measuring mitoxantrone IC50 at 2 uM after 72 hrs by CCK8 assay (Rvb = 50.66 +/- 6.88 nM)

C=CC(C)(C)c1cc(/C=C/C(=O)c2ccc(O)cc2)c(OC)cc1O [3-(4-hydroxy-2-methoxy-5-(2-methylbut-3-en-2-yl)phenyl)-1-(4-hydroxyphenyl)prop-2-en-1-one]
IC50 [1]: 51 nM
IC50 [2]: 367 nM
IC50 [3]: 56500 nM
IC50 [4]: 49300 nM
IC50 [5]: 19 nM
IC50 [6]: 410 nM
IC50 [7]: 53600 nM
IC50 [8]: 6800 nM
IC50 [9]: 66600 nM
IC50 [10]: 70 nM
IC50 [11]: 90 nM
IC50 [12]: 6.2 nM
IC50 [13]: 310 nM
IC50 [14]: 7.1 nM
IC50 [15]: 2630 nM
IC50 [16]: 610 nM
IC50 [17]: 86 nM
IC50 [18]: 44 nM
IC50 [19]: 1030 nM
IC50 [20]: 148 nM
IC50 [21]: 39500 nM
IC50 [22]: 1530 nM
IC50 [23]: 42 nM
IC50 [24]: 442 nM
IC50 [25]: 130 nM
IC50 [26]: 144 nM
IC50 [27]: 75 nM
IC50 [28]: 7.8 nM
